According to patent US11459309B2, “Crystalline forms of a lysyl oxidase-like 2 inhibitor and methods of making” (PHARMAKEA, INC., priority 2016, dated 2022):

Legend:
[1] = Stability studies (accelerated, ICH); assay type: physicochemical
Method: The compounds were assayed according to appearance, purity, related Substances, chiral purity, moisture, DSC, and XRPD

[2] = Forced degradation study; assay type: physicochemical
[3] = Solubility and metastable limit curves (clear point / cloud point, Crystal16); assay type: physicochemical
Method: The samples were then cooled from 70 back to −8° C. at the same rate. The clear point upon heating (at 100% transmission) and the cloud point upon re-cooling (<100% transmission) were recorded using the Crystal16 instrument and the data is shown in Table 17. XRPD analysis was performed on all solids obtained post cooling.

[4] = Aqueous solubility of Form 1 of Compound 2; assay type: physicochemical
[5] = Organic (qualitative) solubility of Form 1 of Compound 2; assay type: physicochemical
[6] = Gravimetric Vapor Sorption (GVS); assay type: physicochemical; conditions: 0 to 90% RH; methanesulfonate salt
Excerpt: Gravimetric Vapor Sorption (GVS) isotherms were obtained using an SMS DVS Intrinsic moisture sorption analyser, controlled by DVS Intrinsic Control software v1.0.1.2 (or v 1.0.1.3), over a range of 0 to 90% relative humidity (RH).

[7] = Storage of solid forms at 40° C./75% RH or 25° C./97% RH; assay type: physicochemical; conditions: for 7 days storage @ 40° C./75% RH: resulting form (XRPD): 7 days / one week, hydrochloride salt
Method: All retrieved solids from the crystallisation attempts were stored at 40° C. and 75% RH.

[8] = as above; assay type: physicochemical; conditions: for 7 days storage @ 40° C./75% RH: appearance: table prints 40° C./5% RH, hydrochloride salt
[9] = Form conversion on heating (thermal analysis / XRPD); assay type: physicochemical; conditions: heated above 150° C.
Method: DSC data were collected on a TA Instruments Q2000 equipped with a 50 position auto-sampler. The calibration for thermal capacity was carried out using sapphire and the calibration for energy and temperature was carried out using certified indium. Typically 0.5-3 mg of each sample, in a pin-holed aluminium pan, was heated at 10° C./min from 25° C. to 300° C. A purge of dry nitrogen at 50 ml/min was maintained over the sample.

[10] = Method: After each addition of solvent, the system was shaken gently for 10 minutes at 50° C. and then allowed to stand at room temperature for 5 min before the addition of a new aliquot of solvent. After the assessment was completed, any suspensions obtained were matured and clear solutions were cooled at 5° C.

CS(=O)(=O)O.NCc1cc(Oc2cccc(C(=O)N3C[C@@H](O)[C@H](F)C3)c2)nc(C(F)(F)F)c1 [Compound 2, (R,R)-trans-(3-((4-(aminomethyl)-6-(trifluoromethyl)pyridin-2-yl)oxy)phenyl)(3-fluoro-4-hydroxypyrrolidin-1-yl)methanone, methanesulfonate salt]
ICH stability, 1 month data ([1]; long-term (25° C./60%) and accelerated (40° C./75%) conditions of 1-year and 2-year ICH studies): within limits for all attributes tested
forced degradation, solid state, heat ([2]; solid, 100° C., 24 hours): stable
forced degradation, solid state, light ([2]; solid, max 365 nm, 24 hours): stable
forced degradation, solution state, heat ([2]; solution, 50° C. for 24 hours): stable
Clear Point Temperature ([3]; 5 mg in 1 mL IPA:water 95:5): 6.9 °C
Clear Point Temperature ([3]; 10 mg in 1 mL IPA:water 95:5): 20.3 °C
Clear Point Temperature ([3]; 20 mg in 1 mL IPA:water 95:5): 37.2 °C
Clear Point Temperature ([3]; 30 mg in 1 mL IPA:water 95:5): 48.5 °C
Cloud Point Temperature ([3]; 30 mg in 1 mL IPA:water 95:5): −7.8 °C
Clear Point Temperature ([3]; 40 mg in 1 mL IPA:water 95:5): 55.8 °C
Cloud Point Temperature ([3]; 40 mg in 1 mL IPA:water 95:5): −1.8 °C
Clear Point Temperature ([3]; 60 mg in 1 mL IPA:water 95:5): 64 °C
Cloud Point Temperature ([3]; 60 mg in 1 mL IPA:water 95:5): 14.5 °C
Clear Point Temperature ([3]; 70 mg in 1 mL IPA:water 95:5): 68.6 °C
Cloud Point Temperature ([3]; 70 mg in 1 mL IPA:water 95:5): 24.7 °C

Cl.NCc1cc(Oc2cccc(C(=O)N3C[C@@H](O)[C@H](F)C3)c2)nc(C(F)(F)F)c1 [Compound 1, (R,R)-trans-(3-((4-(aminomethyl)-6-(trifluoromethyl)pyridin-2-yl)oxy)phenyl)(3-fluoro-4-hydroxypyrrolidin-1-yl)methanone, hydrochloride salt]
3 month accelerated stability ([1]; 40° C./75% RH, 3 month): no significant changes in purity or absorption of moisture

CS(=O)(=O)O.NCc1cc(Oc2cccc(C(=O)N3C[C@@H](O)[C@H](F)C3)c2)nc(C(F)(F)F)c1 [Form 1 of Compound 2, (R,R)-trans-(3-((4-(aminomethyl)-6-(trifluoromethyl)pyridin-2-yl)oxy)phenyl)(3-fluoro-4-hydroxypyrrolidin-1-yl)methanone, methanesulfonate salt]
Aqueous Solubility ([4]; pH 2): >107 mg/mL
Aqueous Solubility ([4]; pH 7.4): >107 mg/mL
Aqueous Solubility ([4]; pH 10): >85 mg/mL
Organic Solubility: Qualitative Solubility ([5]; isopropyl acetate, isopropanol, methyl-ethyl ketone, acetone, ethanol, methyl-t-butyl ether, 1,4 dioxane, toluene, tetrahydrofuran, dichloromethane, acetonitrile): ≤10 mg/mL
Organic Solubility: Qualitative Solubility ([5]; water, dimethyl sulfoxide): >200 mg/mL
XRPD after the GVS analysis [6]: Unchanged
Polymorph stability on storage ([7]; 7 days at 40° C./75% RH and 25° C./97% RH): stable for 7 days

Cl.NCc1cc(Oc2cccc(C(=O)N3C[C@@H](O)[C@H](F)C3)c2)nc(C(F)(F)F)c1 [Form 1 of Compound 1, (R,R)-trans-(3-((4-(aminomethyl)-6-(trifluoromethyl)pyridin-2-yl)oxy)phenyl)(3-fluoro-4-hydroxypyrrolidin-1-yl)methanone, hydrochloride salt]
7 days storage @ 40° C./75% RH: appearance [8]: Waxy/glassy
hygroscopicity [7]: hygroscopic solid
7 days storage @ 40° C./75% RH: resulting form (XRPD) [7]: transforms to Form 2
behaviour on storage at 40° C. and 75% RH ([7]; after 24 hours): deliquescing

Cl.NCc1cc(Oc2cccc(C(=O)N3C[C@@H](O)[C@H](F)C3)c2)nc(C(F)(F)F)c1 [Form 2 of Compound 1, (R,R)-trans-(3-((4-(aminomethyl)-6-(trifluoromethyl)pyridin-2-yl)oxy)phenyl)(3-fluoro-4-hydroxypyrrolidin-1-yl)methanone, hydrochloride salt]
7 days storage @ 40° C./75% RH: appearance [8]: Waxy/glassy
behaviour on storage conditions ([7]; 1 week, 40° C. and 75% RH): remained unchanged
7 days storage @ 40° C./75% RH: resulting form (XRPD) [7]: Form 2
stability over time ([7]; thermally stable, over time): converts over time to a waxy solid

CS(=O)(=O)O.NCc1cc(Oc2cccc(C(=O)N3C[C@@H](O)[C@H](F)C3)c2)nc(C(F)(F)F)c1 [Form 2 of Compound 2, (R,R)-trans-(3-((4-(aminomethyl)-6-(trifluoromethyl)pyridin-2-yl)oxy)phenyl)(3-fluoro-4-hydroxypyrrolidin-1-yl)methanone, methanesulfonate salt]
form change after storage ([8]; 7 days at 25° C./97% RH): change also occurs
form change on heating [9]: can transform to Form 1
form change after GVS analysis and storage ([7]; after GVS analysis and 7 days at 40° C./75% RH): phase transformation towards Form 1
form change in humidity ([7]; humidity): converts to Form 1

Cl.NCc1cc(Oc2cccc(C(=O)N3C[C@@H](O)[C@H](F)C3)c2)nc(C(F)(F)F)c1 [Amorphous Compound 1, (R,R)-trans-(3-((4-(aminomethyl)-6-(trifluoromethyl)pyridin-2-yl)oxy)phenyl)(3-fluoro-4-hydroxypyrrolidin-1-yl)methanone, hydrochloride salt]
Solubility [10]: 200-100
7 days storage @ 40° C./75% RH: appearance [8]: Glassy
